Tests used:
[1] = target: T1, human BLT2 (Homo sapiens, UniProt Q9NPC1); experiment: LTB4-induced increase in intracellular calcium ion concentration in CHO cells expressing human BLT2 (Fluo-3, Flexstation); type: cell-based; conditions: LTB4 100 nM final; for Suppressive effect on increase in intracellular calcium ion concentration compared with ZK158252 (in words): compound 10 μM final
T1 construct: expressed in transfected cells; host or cells: CHO cells
T1 sequence (Q9NPC1 1-358): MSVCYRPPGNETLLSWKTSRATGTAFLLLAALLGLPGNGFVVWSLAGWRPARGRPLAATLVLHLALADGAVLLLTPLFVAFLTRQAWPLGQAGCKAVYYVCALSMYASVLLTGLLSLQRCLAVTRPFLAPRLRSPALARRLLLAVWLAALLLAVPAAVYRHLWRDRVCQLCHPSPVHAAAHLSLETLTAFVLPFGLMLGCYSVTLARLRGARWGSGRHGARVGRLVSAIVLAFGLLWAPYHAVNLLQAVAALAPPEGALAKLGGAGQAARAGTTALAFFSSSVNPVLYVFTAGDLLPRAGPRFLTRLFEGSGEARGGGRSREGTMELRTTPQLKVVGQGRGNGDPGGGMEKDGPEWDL
Protocol: (§1) CHO cells habouring a gene encoding human BLT1 or human BLT2 and functionally expressing the receptor were seeded in a 96 well plate at 4×10^4 cells/well, and cultured at 37° C. for 60 min. The culture supernatant was removed and a loading buffer (100 μl) containing 4 μM Fluo-3 (manufactured by Dojindo), 0.04% pluoronic acid (manufactured by Sigma) and 1% serum was added. The mixture was culture at 37° C. for 30 min to introduce Fluo-3 into the cells. After culture, the cells were washed with a buffer, and a buffer containing various compounds (10 μM (final concentration)) was added, and then 100 nM (final concentration) of LTB4 was added. Changes in the intracellular calcium ion concentration were measured with Flexstation (manufactured by Molecular Devices Corporation) as increase in the fluorescence intensity (area under a curve in a time-course graph of fluorescence intensity in 10 min measurement). As a positive control of BLT1 and BLT2 antagonists, ZK158252 was used.

[2] = target: T2, human BLT1 (Homo sapiens, UniProt Q15722); experiment: LTB4-induced increase in intracellular calcium ion concentration in CHO cells expressing human BLT1 (Fluo-3, Flexstation); type: cell-based; conditions: CHO cells with human BLT1; LTB4 100 nM final; compound 10 μM final
T2 construct: expressed in transfected cells; host or cells: CHO cells
Protocol: as §1

[3] = test system: LTB4 receptor; experiment: TXB2 release from guinea pig eosinophils stimulated with LTB4 (LTB4 receptor antagonist activity); type: cell-based; conditions: 10^−3 M test compound (37.5 μl) added to 300 μl cell suspension, then 10^−7 M LTB4 (37.5 μl), 37° C. 15 min, positive control 100, negative control 0, N.D. = TXB2 concentration at measurement limit or less
Protocol: The LTB4 receptor antagonist activity of the test compound was examined using, as an index, thromboxane B2 (TXB2) released when stimulating eosinophil of guinea pig with LTB4.
Based on the method described in Japanese Journal of Pharmacology, vol. 70, p. 337-345 (1996) etc., eosinophils of guinea pig were prepared. A cell suspension (300 μl, 1.25×10^6 cells/ml) was placed in a 5 ml polypropylene test tube and, after incubation at 37° C. for 5 min., 10^−3 M test compound (37.5 μl) dissolved in 0.1% DMSO aqueous solution was added and the cells were continuously cultured for 5 min. Then, 10^−7 M LTB4 (37.5 μl) was added to induce the reaction and the cells were incubated at 37° C. for 15 min. The reaction was quenched in ice water, and the culture was centrifuged at 4° C., 3000 rpm for 10 min. The obtained supernatant was prepared as a sample for TXB2 measurement, and preserved at −80° C. before use for the measurement. The quantitation of TXB2 was performed using a TXB2 enzyme immunoassay kit (manufactured by Cayman Chemical Company). The release ratio (%) of TXB2 from the eosinophils was determined by the following formula: release ratio (%) of TXB2=[(average value of test compound administration group−average value of negative control group)/(average value of positive control group−average value of negative control group)]×100
As used herein, the positive control group means a group to which stimulation with LTB4 was applied but the same volume of a medium was given instead of the test compound, and the negative control group means a group to which stimulation with LTB4 was not applied, the same volume of a medium was given instead of LTB4, and the same volume of a medium was given instead of the test compound. When the release ratio of TXB2 is smaller than 0, it means that the measured TXB2 concentration was lower than that of the negative control group. When the TXB2 concentration in the sample was the measurement limit or less, N.D. is indicated.

T2 sequence (Q15722 whole entry): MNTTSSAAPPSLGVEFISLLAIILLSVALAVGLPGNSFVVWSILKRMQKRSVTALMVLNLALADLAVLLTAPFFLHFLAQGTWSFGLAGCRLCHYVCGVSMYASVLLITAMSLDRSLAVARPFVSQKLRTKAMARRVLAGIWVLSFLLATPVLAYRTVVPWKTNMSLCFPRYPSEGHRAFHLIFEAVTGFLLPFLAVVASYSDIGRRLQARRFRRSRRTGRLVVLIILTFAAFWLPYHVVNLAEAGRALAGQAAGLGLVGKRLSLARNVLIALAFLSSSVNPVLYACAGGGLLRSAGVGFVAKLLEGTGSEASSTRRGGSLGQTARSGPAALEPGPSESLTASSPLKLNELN

melting point | Suppression of increase in intracellular calcium ion concentration due to LTB4 stimulation (in words) ([1]; CHO cells with human BLT2, positive control antagonist) | Suppression of increase in intracellular calcium ion concentration due to LTB4 stimulation (in words) [2] | Structure (SMILES) | Suppressive effect on increase in intracellular calcium ion concentration compared with ZK158252 (in words) [1] | Amount of TXB2 release (%) [3]
142.7 to 144.3 °C |  |  | COc1ccc2oc(-c3csc(N=CN(C)C)n3)c(-c3ccc(Cl)cc3)c2c1 [Example 219, N′-{4-[3-(4-chlorophenyl)-5-methoxybenzofuran-2-yl]thiazol-2-yl}-N,N-dimethylformamidine] | almost of the same level as or not less than that by ZK158252 | 
142.2 to 144.4 °C |  |  | COc1cccc2cc(/C(Cl)=C/C=C/C(=O)N3CCCCC3)oc12 [Example 144, (2E,4Z)-5-chloro-5-(7-methoxybenzofuran-2-yl)-1-piperidin-1-ylpenta-2,4-dien-1-one] | almost of the same level as or not less than that by ZK158252 | 
263.3 to 265.3 °C |  |  | C/C(O)=C(\C#N)C(=O)Nc1c(C(=O)c2ccc(Cl)cc2)oc2ccc(Br)cc12 [Example 98, (Z)-N-[5-bromo-2-(4-chlorobenzoyl)benzofuran-3-yl]-2-cyano-3-hydroxy-2-butenamide] | almost of the same level as or not less than that by ZK158252 | 
 | significantly suppressed | significantly suppressed | O=C(O)CCC/C=C1\CCCCC1/C=C/C=C/C(O)C1(CC#Cc2ccccc2)CCC1 (centres unmarked) [ZK158252, reference compound] |  | 
114 to 115.5 °C |  |  | CCOC(=O)CCCOc1cccc2cc(/C(C)=C/C(=O)NCCc3ccc(OC)c(OC)c3)oc12 [Example 49, Ethyl (E)-4-(2-{2-[2-(3,4-dimethoxyphenyl)ethylcarbamoyl]-1-methylvinyl}benzofuran-7-yloxy)butyrate] | almost of the same level as or not less than that by ZK158252 | 2.37%
 |  |  | CCN(CC)C(=O)/C=C(\C)c1cc2cccc(OC(C)C)c2o1 [Example 33, (E)-3-(7-isopropoxybenzofuran-2-yl)-N,N-diethyl-2-butenamide] | almost of the same level as or not less than that by ZK158252 | −0.199%
 |  |  | CCOC(=O)CCCOc1cccc2cc(/C(C)=C/C(=O)N(CC)CC)oc12 [Example 224, Ethyl (E)-4-[2-(2-diethylcarbamoyl-1-methylvinyl)benzofuran-7-yloxy]butyrate] | almost of the same level as or not less than that by ZK158252 | 
229.5 to 231 °C |  |  | COc1ccc2oc(-c3csc(NC(=O)/C(C#N)=C(/C)O)n3)c(-c3ccc(Cl)cc3)c2c1 [Example 222, (Z)-2-cyano-3-hydroxy-2-butenoic acid {4-[3-(4-chlorophenyl)-5-methoxybenzofuran-2-yl]thiazol-2-yl}amide] | almost of the same level as or not less than that by ZK158252 | 
155.5 to 157.5 °C |  |  | COc1cccc(NC(=O)/C=C(\C)c2cc3cccc(OCCCC(=O)O)c3o2)c1 [Example 29, (E)-4-{2-[2-(3-methoxyphenylcarbamoyl)-1-methylvinyl]benzofuran-7-yloxy}butyric acid] | almost of the same level as or not less than that by ZK158252 | −0.19%
140.1 to 142 °C |  |  | COc1cccc2cc(/C(Cl)=C/C=C/C(=O)N(C(C)C)C(C)C)oc12 [Example 142, (2E,4Z)-5-chloro-5-(7-methoxybenzofuran-2-yl)penta-2,4-dienoic acid diisopropylamide] | almost of the same level as or not less than that by ZK158252 | 
194 to 195.1 °C |  |  | COc1ccc(NC(=O)/C=C/c2oc3ccc(OC)cc3c2-c2ccc(Cl)cc2)cc1 [Example 141, (E)-3-[3-(4-chlorophenyl)-5-methoxybenzofuran-2-yl]-N-(4-methoxyphenyl)acrylamide] | almost of the same level as or not less than that by ZK158252 | 
90 to 94.8 °C |  |  | CCOC(=O)CCCOc1cccc2cc(/C(C)=C/C(=O)N3CCOCC3)oc12 [Example 30, Ethyl (E)-4-[2-(1-methyl-3-morpholino-3-oxo-1-propenyl)benzofuran-7-yloxy]butyrate] | almost of the same level as or not less than that by ZK158252 | 0.086%
101.5 to 105 °C |  |  | CCOC(=O)CCCOc1cccc2cc(/C(C)=C\C(=O)Nc3ccc(OC)c(OC)c3)oc12 [Example 46, Ethyl (Z)-4-{2-[2-(3,4-dimethoxyphenylcarbamoyl)-1-methylvinyl]benzofuran-7-yloxy}butyrate] | almost of the same level as or not less than that by ZK158252 | 45.62%

— US7638540B2, “Benzofuran compound and medicinal composition containing the same” (The New Industry Research Organization, priority 2003, dated 2009)
